Broadly, the MIC is the smallest concentration in the dilution series that meets the test's criterion for growth inhibition. A higher MIC goes with weaker potency. One may read the IC50 as the concentration that gives 50% inhibition.

The values below come from ChEMBL document CHEMBL4665708, “Generation of Stilbene Antimicrobials against Multiresistant Strains of Staphylococcus aureus through Biotransformation by the Enzymatic Secretome of Botrytis cinerea” (J Nat Prod, 2020).

Series [1] concerns Staphylococcus aureus. Description: Antimicrobial activity against methicillin-resistant Staphylococcus aureus ATCC 33591 after 24 hrs by broth microdilution method. It is filed as functional. For orientation: Broth dilution looks for growth in wells or tubes with falling amounts of substance.
Series [2] is described as follows: Selectivity ratio of IC50 for human MCF-10A cells to MIC for vancomyicin-resistant Staphylococcus aureus 510. It is filed as toxicity.
Series [3] has as its system Staphylococcus aureus. In words: Antimicrobial activity against vancomycin-resistant Staphylococcus aureus 510 after 24 hrs by broth microdilution method. It is filed as functional.
Series [4] can be described thus: Selectivity ratio of IC50 for human MCF-10A cells to MIC for methicillin-resistant Staphylococcus aureus ATCC 33591. The class given is toxicity.
The next series concerns Pseudomonas aeruginosa. Description: Antimicrobial activity against Pseudomonas aeruginosa ATCC 27853 at 256 ug/ml after 24 hrs by broth microdilution assay. It is filed as functional, organism-based. To be noted: dose 256.0 µg/ml.
Another series relates to HepG2. Description: Cytotoxicity against human HepG2 cells after 3 days by microplate reader analysis. The conditions noted are these: HepG2, 72 h. It is filed as cell-based.
The next series deals with MCF-10A. Description: Cytotoxicity against human MCF-10A cells after 3 days by microplate reader analysis. It is filed as cell-based. The conditions noted are these: 72 h.

Values after ≈ are worked out from the molar mass of the structure shown. Active and inactive are the calls of the source.

With `COc1cc(OC)cc([C@H]2c3cc(/C=C/c4cc(O)cc(O)c4)ccc3O[C@@H]2c2ccc(O)cc2)c1` (relative stereo), the MIC with Staphylococcus aureus [1] and against Staphylococcus aureus [3] was 4 µM (≈ 1.93 µg/mL) each time. Further, the selectivity ratio in series [2] and in series [4] was 7.2 throughout. Further, the outcome with Pseudomonas aeruginosa was inactive. Also, the figures for the IC50 with HepG2 and in the series with MCF-10A were 27 µM and 29 µM, respectively.

For `Oc1ccc(/C=C/c2cc(O)cc(O)c2)cc1` [RESVERATROL], the minimal inhibitory concentration (MIC) against Staphylococcus aureus [1] is more than 561 µM. The result in the series with Pseudomonas aeruginosa was inactive.

As to `CN[C@H](CC(C)C)C(=O)N[C@H]1C(=O)N[C@@H](CC(N)=O)C(=O)N[C@H]2C(=O)N[C@H]3C(=O)N[C@H](C(=O)N[C@H](C(=O)O)c4cc(O)cc(O)c4-c4cc3ccc4O)[C@H](O)c3ccc(c(Cl)c3)Oc3cc2cc(c3O[C@@H]2O[C@H](CO)[C@@H](O)[C@H](O)[C@H]2O[C@H]2C[C@](C)(N)[C@H](O)[C@H](C)O2)Oc2ccc(cc2Cl)[C@H]1O` [VANCOMYCIN], the MIC in the series with Staphylococcus aureus [1] is 0.69 µM (≈ 1 µg/mL); against Staphylococcus aureus [3], 22 µM (≈ 31.9 µg/mL). In addition, the result in the series on Pseudomonas aeruginosa was inactive.

`COc1cc(OC)cc([C@@H]2[C@@H](c3ccc(O)cc3)c3c(OC)cc(OC)cc3[C@H]2[C@@H](O)c2ccc(O)cc2)c1` yielded an MIC in the series on Staphylococcus aureus [1] of 121 µM (≈ 64 µg/mL). Moreover, in the series with Pseudomonas aeruginosa, the result was inactive.

`COc1cc(OC)cc([C@@H]2[C@@H](c3ccc(O)cc3)c3c(OC)cc(OC)cc3[C@H]2[C@@H](OC)c2ccc(O)cc2)c1` came in with an MIC against Staphylococcus aureus [1] of 15 µM (≈ 8.14 µg/mL). In addition, the selectivity ratio in series [4] came out at 1.1. The result with Pseudomonas aeruginosa was inactive. Also, the IC50 in the series on HepG2 came out at 15 µM; in the series on MCF-10A, 17 µM.

Turning to `COc1cc(OC)c2c(c1)[C@@H]([C@@H](OC)c1ccc(O)cc1)[C@H](c1cc(O)cc(O)c1)[C@H]2c1ccc(O)cc1`, the MIC in the series with Staphylococcus aureus [1] is more than 249 µM. Also, in the series with Pseudomonas aeruginosa, the outcome was inactive.

In the series on Staphylococcus aureus [1], `COc1cc(/C=C/c2ccc(O)cc2)cc(OC)c1` [PTEROSTILBENE] displayed a minimum inhibitory concentration (MIC) of 31 µM (≈ 7.95 µg/mL). In the series on Pseudomonas aeruginosa, the outcome was inactive.

In turn, `COc1cc(OC)cc([C@@H](C(OC)OC)[C@@H](c2cc(O)cc(O)c2)C(c2ccc(O)cc2)c2ccc(O)cc2)c1` showed an MIC against Staphylococcus aureus [1] of more than 234 µM. In addition, in the series on Pseudomonas aeruginosa, the outcome was inactive.

In the series on Staphylococcus aureus [1], `COc1cc(/C=C/c2ccc3c(c2)[C@H](c2cc(OC)cc(OC)c2)[C@@H](c2ccc(O)cc2)O3)cc(OC)c1` gave an MIC of more than 251 µM. For the same molecule, the selectivity ratio in series [4] was less than 0.1. For the same molecule, the outcome with Pseudomonas aeruginosa was inactive. Besides, the figures for the IC50 with HepG2 and with MCF-10A were 29 µM and 25 µM, respectively.

In the series on Staphylococcus aureus [1], `COc1cc(/C=C/c2ccc(OC(c3cc(OC)cc(OC)c3)C(O)c3ccc(O)cc3)cc2)cc(OC)c1` (centres undefined) came in with an MIC of more than 242 µM. For the same molecule, the result with Pseudomonas aeruginosa was inactive.

`COC(c1ccc(O)cc1)[C@@H]1c2cc(O)cc(O)c2[C@H](c2ccc(O)cc2)[C@H]1c1cc(O)cc(O)c1` (some centres undefined) had an MIC against Staphylococcus aureus [1] of more than 263 µM. Also, the result in the series on Pseudomonas aeruginosa was inactive.

In the series with Staphylococcus aureus [1], `COc1cc(OC)c2c(c1)[C@H]1[C@H](c3ccc(O)cc3)c3c(OC)cc(OC)cc3[C@H]1[C@@H]2c1ccc(O)cc1` showed an MIC of 31 µM (≈ 15.8 µg/mL). The selectivity ratio in series [4] is 0.7. Moreover, the result with Pseudomonas aeruginosa was inactive. Besides, the IC50 in the series on HepG2 was found to be 22 µM; with MCF-10A, 24 µM.

In the series on Staphylococcus aureus [1], `COc1cc(OC)cc(C(C(OC)OC)C(c2cc(OC)cc(OC)c2)C(c2ccc(O)cc2)c2ccc(O)cc2)c1` (centres undefined) yielded an MIC of 14 µM (≈ 8.05 µg/mL). Moreover, the selectivity ratio in series [4] is 1.4. In addition, in the series with Pseudomonas aeruginosa, the outcome was inactive. Further, the IC50 in the series with HepG2 and in the series with MCF-10A was 19 µM in each case.

In the series on Staphylococcus aureus [1], `COc1cc(OC)cc([C@@H]2[C@@H](c3ccc(O)cc3)c3c(O)cc(O)cc3[C@H]2[C@H](OC)c2ccc(O)cc2)c1` came in with an MIC of more than 249 µM. In the series with Pseudomonas aeruginosa, the outcome was inactive.

`Oc1ccc([C@H]2Oc3ccc(/C=C/c4cc(O)cc(O)c4)cc3[C@@H]2c2cc(O)cc(O)c2)cc1` (relative stereo): it took 35 µM (≈ 15.9 µg/mL) to inhibit growth in the series on Staphylococcus aureus [1] (MIC). For the same molecule, the selectivity ratio in series [4] was found to be 1.4. Further, the result with Pseudomonas aeruginosa was inactive. The 50% inhibitory concentration (IC50) in the series on HepG2 and in the series with MCF-10A was 48 µM each time.

In the case of `COc1cc(OC)cc([C@@H]2[C@@H](c3cc(OC)cc(OC)c3)[C@H](c3ccc(O)cc3)O[C@@H]2c2ccc(O)cc2)c1`, the MIC in the series with Staphylococcus aureus [1] turned out to be 121 µM (≈ 64 µg/mL). For the same molecule, in the series with Pseudomonas aeruginosa, the outcome was inactive. In addition, the IC50 in the series with HepG2 and in the series on MCF-10A was more than 95 µM each time.

Take `COc1cc(OC)cc(C(Oc2ccc(/C=C/c3cc(O)cc(O)c3)cc2)C(OC)c2ccc(O)cc2)c1` (centres undefined): in the series on Staphylococcus aureus [1], it took 62 µM (≈ 31.9 µg/mL) to inhibit growth (MIC). In addition, the selectivity ratio in series [4] worked out at 0.4. In addition, the result in the series on Pseudomonas aeruginosa was inactive. Further, the IC50 turned out to be 29 µM in the series with HepG2 and 23 µM with MCF-10A.

As to `Oc1ccc([C@@H]2c3c(O)cc(O)cc3[C@H]3[C@H](c4ccc(O)cc4)c4c(O)cc(O)cc4[C@@H]23)cc1` [PALLIDOL], in the series on Staphylococcus aureus [1], the minimal inhibitory concentration (MIC) was more than 282 µM. Besides, the outcome with Pseudomonas aeruginosa was inactive.

For `COc1cc(/C=C/c2ccc(OC(c3cc(O)cc(O)c3)C(OC)c3ccc(O)cc3)cc2)cc(OC)c1` (racemic), the MIC is 8 µM (≈ 4.12 µg/mL) with Staphylococcus aureus [1] and 4 µM (≈ 2.06 µg/mL) against Staphylococcus aureus [3]. Further, the values for the selectivity ratio in series [2] and in series [4] were 6.9 and 3.4, respectively. The result with Pseudomonas aeruginosa was inactive. Also, the IC50 worked out at 23 µM in the series on HepG2 and 27 µM in the series on MCF-10A.

Take `COc1cccc2c1C(=O)c1c(O)c3c(c(O)c1C2=O)C[C@@](O)(C(=O)CO)C[C@@H]3O[C@H]1C[C@H](N)[C@H](O)[C@H](C)O1` [DOXORUBICIN]: the results for the IC50 in the series on HepG2 and in the series with MCF-10A were 1.18 µM and 0.31 µM, respectively.

In the series on Staphylococcus aureus [1], `COc1cc(OC)cc([C@@H]2[C@@H](c3ccc(O)cc3)c3c(O)cc(O)cc3[C@H]2[C@@H](OC)c2ccc(O)cc2)c1` returned an MIC of more than 249 µM. Moreover, in the series on Pseudomonas aeruginosa, the outcome was inactive.

For `COc1cc(/C=C/c2ccc3c(c2)[C@H](c2cc(O)cc(O)c2)[C@@H](c2ccc(O)cc2)O3)cc(OC)c1`, the MIC came to 22 µM (≈ 10.6 µg/mL) in the series with Staphylococcus aureus [1] and 2 µM (≈ 0.965 µg/mL) in the series on Staphylococcus aureus [3]. For the same molecule, the selectivity ratio in series [2] and in series [4] was 32 each time. The result with Pseudomonas aeruginosa was inactive. In addition, the IC50 turned out to be 27 µM with HepG2 and 66 µM in the series with MCF-10A.

`COc1cc(OC)cc([C@@H]2[C@@H](c3ccc(O)cc3)c3c(OC)cc(OC)cc3[C@H]2[C@H](O)c2ccc(O)cc2)c1` returned an MIC in the series with Staphylococcus aureus [1] of 121 µM (≈ 64 µg/mL). Also, the result in the series with Pseudomonas aeruginosa was inactive.

Turning to `COc1cc(OC)cc([C@@H]2[C@@H](c3ccc(O)cc3)c3c(O)cc(O)cc3[C@H]2C(O)c2ccc(O)cc2)c1` (some centres undefined), the MIC in the series on Staphylococcus aureus [1] was more than 256 µM. Also, the outcome in the series on Pseudomonas aeruginosa was inactive.
